Several values for one entry are separate records, joined by “and”; a condition that tells them apart may be missing. Identical values can stand only once.
| SMILES | melting point |
| --- | --- |
| CC(=O)Oc1ccc2c(C)cc(=O)oc2c1 [4-methylumbelliferyl acetate] | 150 °C |
| CCCCc1ccc(C(N)=O)cc1 [4-n-butylbenzamide] | 128 °C |
| CCCCc1ccc(O)cc1 [4-n-butylphenol] | 22 °C |
| CCCCCCCc1ccc(O)cc1 [4-n-heptylphenol] | 27 °C |
| CCCCCCc1ccc(O)cc1O [4-n-hexylresorcinol] | 66 °C |
| CCCCCCCCCc1ccc(B(O)O)cc1 [4-n-nonylbenzeneboronic acid] | 84 °C |
| CCCCCc1ccc(B(O)O)cc1 [4-n-pentylbenzeneboronic acid] | 83 °C |
| Cc1c[n+]([O-])ccc1[N+](=O)[O-] [4-nitro-3-picoline n-oxide] | 136 °C |
| Nc1ccc([N+](=O)[O-])cc1N [4-nitro-o-phenylenediamine] | 201 °C |
| COc1ccc([N+](=O)[O-])cc1 [4-nitroanisole] | 52 °C |
| O=Cc1ccc([N+](=O)[O-])cc1 [4-nitrobenzaldehyde] | 105 °C |
| O=[N+]([O-])c1ccc(CCl)cc1 [4-nitrobenzyl chloride] | 72 °C |
| O=C(/C=C/c1ccc([N+](=O)[O-])cc1)c1ccccc1 [4-nitrochalcone] | 164 °C |
| O=[N+]([O-])c1ccc(O)cc1 [4-nitrophenol] [listing 1 of 2 here] | 112 °C |
| O=[N+]([O-])c1ccc(O)cc1 [4-nitrophenol] [listing 2 of 2 here] | 112 °C and 113 °C |
| O=C(Oc1ccc([N+](=O)[O-])cc1)c1ccccc1 [4-nitrophenyl benzoate] | 143 °C |
| O=C(CCl)Oc1ccc([N+](=O)[O-])cc1 [4-nitrophenyl chloroacetate] | 94 °C |
| O=C=Nc1ccc([N+](=O)[O-])cc1 [4-nitrophenyl isocyanate] | 58 °C |
| N#CCc1ccc([N+](=O)[O-])cc1 [4-nitrophenylacetonitrile] | 116 °C |
| O=[N+]([O-])c1cc[n+]([O-])cc1 [4-nitropyridine n-oxide] | 161 °C |
| C=CCCC(=O)O [4-pentenoic acid] | -22 °C |
| N#Cc1ccc(Oc2ccccc2)cc1 [4-phenoxybenzonitrile] | 44 °C |
| O=C(O)Cc1ccc(Oc2ccccc2)cc1 [4-phenoxyphenylacetic acid] | 76 °C |
| c1ccc(-c2csc(-c3ccccn3)n2)cc1 [4-phenyl-2-(2-pyridyl)thiazole] | 57 °C |

| SMILES | melting point |
| --- | --- |
| Cc1cccc(-c2nc(-c3ccccc3)cs2)c1 [4-phenyl-2-(m-tolyl)thiazole] | 48 °C |
| Cc1ccc(-c2nc(-c3ccccc3)cs2)cc1 [4-phenyl-2-(p-tolyl)thiazole] | 58 °C |
| CC(C)(O)CCc1ccccc1 [4-phenyl-2-methyl-2-butanol] | 32 °C |
| O=C(O)CCCc1ccccc1 [4-phenylbutyric acid] | 52 °C |
| O=C1CCC(c2ccccc2)CC1 [4-phenylcyclohexanone] | 80 °C |
| O=c1[nH][nH]c(=O)n1-c1ccccc1 [4-phenylurazole] | 208 °C |
| Cc1cc[n+]([O-])cc1 [4-picoline n-oxide] | 184 °C |
| CC(C)(C)c1ccc(B(O)O)cc1 [4-tert-butylbenzeneboronic acid] | 194 °C |
| CC(C)(C)c1ccc(C(=O)O)cc1 [4-tert-butylbenzoic acid] | 166 °C |
| CCC(C)(C)c1ccc(O)cc1 [4-tert-pentylphenol] | 89 °C |
| O=S(=O)(Cl)Cc1ccc(C(F)(F)F)cc1 [4-trifluoromethyl-alpha-toluenesulfonyl chloride] | 104 °C |
| C=Cc1ccc(C(=O)O)cc1 [4-vinylbenzoic acid] | 142 °C |
| Nc1cc(-c2ccccc2)c(O)c(-c2ccccc2)c1 [5'-Amino-1,1':3',1''-terphenyl-2'-ol] | 149 °C |
| O=C1NC(=O)C(c2ccccc2)(c2ccccc2)N1 [5,5-diphenylhydantoin] | 296 °C |
| Cc1cc2nsnc2cc1C [5,6-dimethyl-2,1,3-benzothiadiazole] | 84 °C |
| Clc1cc(Cl)cc(-c2nnn[nH]2)c1 [5-(3,5-dichlorophenyl)-1h-tetrazole] | 207 °C |
| c1ccc(COc2cccc(-c3nnn[nH]3)c2)cc1 [5-(3-benzyloxyphenyl)-1h-tetrazole] | 209 °C |
| COc1cccc(-c2nnn[nH]2)c1 [5-(3-methoxyphenyl)-1h-tetrazole] | 157 °C |
| CN(C)c1ccc(/C=C2\SC(=S)NC2=O)cc1 [5-(4-dimethylaminobenzylidene)rhodanine] | 278 °C |
| CCSc1nnn[nH]1 [5-(ethylthio)-1h-tetrazole] | 76 °C |
| O=c1[nH]cc(C(F)(F)F)c(=O)[nH]1 [5-(trifluoromethyl)uracil] | 253 °C |
| Nc1cccc2c(=O)[nH][nH]c(=O)c12 [5-Amino-2,3-dihydrophthalazine-1,4-dione] | 319 °C |
| Cc1ccc(N)cc1O [5-Amino-o-cresol] | 161 °C |
| Oc1cc(Cl)ccc1Oc1ccc(Cl)cc1Cl [5-Chloro-2-(2,4-dichlorophenoxy)phenol] | 57 °C |

| SMILES | melting point |
| --- | --- |
| Cc1ccc(C(C)C)cc1O [5-Isopropyl-2-methylphenol] | 2 °C |
| COc1ccc2c(c1)no[n+]2[O-] [5-Methoxybenzofurazan, 1-oxide] | 118 °C |
| O=C1CC[C@@H](C(=O)O)N1 [5-Oxo-L-proline] | 162 °C |
| O=C(O)CCCC[C@@H]1CCSS1 [5-[(3R)-1,2-Dithiolan-3-yl]pentanoic acid] | 60 °C |
| NCCCCCO [5-amino-1-pentanol] | 36 °C |
| Cn1ncc(Br)c1N [5-amino-4-bromo-1-methyl-1h-pyrazole] | 99 °C |
| N#CCc1nn(-c2ccccc2)c(N)c1C#N [5-amino-4-cyano-3-cyanomethyl-1-phenyl-1h-pyrazole,] | 164 °C |
| Nc1cccc2cnccc12 [5-aminoisoquinoline] | 129 °C |
| Nc1ccc(O)c(C(=O)O)c1 [5-aminosalicylic acid] | 280 °C |
| NCCCCC(=O)O [5-aminovaleric acid] | 157 °C |
| Cc1cc(C)c(Br)cc1C [5-bromo-1,2,4-trimethylbenzene] | 72 °C |
| Cc1cc(Br)cn(C)c1=O [5-bromo-1,3-dimethyl-2-pyridone] | 106 °C |
| CN1CC(Br)C(=O)NC1=O (stereo not given) [5-bromo-1-methyldihydropyrimidine-2,4(1H,3H)-dione] | 149 °C |
| O=c1[nH]c(=O)n([C@@H]2O[C@H](CO)[C@@H](O)[C@H]2O)cc1Br [5-bromouridine] | 192 °C |
| Nc1cc(Cl)ccc1O [5-chloro-2-hydroxyaniline] | 143 °C |
| COc1ccc(Cl)cc1B(O)O [5-chloro-2-methoxybenzeneboronic acid] | 138 °C |
| Cc1cc2cc(Cl)ccc2[nH]1 [5-chloro-2-methylindole] | 112 °C |
| Oc1ccc(Cl)c2cccnc12 [5-chloro-8-hydroxyquinoline] | 123 °C |
| N#CCc1csc2ccc(Cl)cc12 [5-chlorobenzo[b]thiophene-3-acetonitrile] | 134 °C |
| O=C(O)c1cc(Cl)ccc1O [5-chlorosalicylic acid] | 174 °C |
| OB(O)c1ccc(Cl)s1 [5-chlorothiophene-2-boronic acid] | 138 °C |
| CCc1ccc(C)nc1 [5-ethyl-2-methylpyridine] | -71 °C |
| O=C(O)c1cc(O)ccc1[N+](=O)[O-] [5-hydroxy-2-nitrobenzoic acid] | 170 °C |
| Cn1nnnc1S [5-mercapto-1-methyltetrazole] | 127 °C |

| SMILES | melting point |
| --- | --- |
| COc1ccc2c(c1)C(=O)C(=O)N2 [5-methoxyisatin] | 201 °C |
| Cc1nnc(S)s1 [5-methyl-1,3,4-thiadiazole-2-thiol] | 187 °C |
| CC(=O)OC1CCC2(C)C3CCC4(C)C(=O)CCC4C3C(=O)CC2(C)C1 (stereo not given) [5-methyl-7,17-dioxoandrostan-3-yl acetate] | 155 °C |
| Cc1ccc2[nH]cnc2c1 [5-methylbenzimidazole] | 115 °C |
| Cc1ccc2c(c1)no[n+]2[O-] [5-methylbenzofuroxan] | 97 °C |
| Cc1cc(C)cc([N+](=O)[O-])c1 [5-nitro-1,3-dimethylbenzene] | 74 °C |
| O=Cc1ccc([N+](=O)[O-])o1 [5-nitro-2-furaldehyde] | 36 °C |
| OC[C@@H]1[C@H](CO)[C@@H]2C=C[C@H]1C2 [5-norbornene-2-endo,3-endo-dimethanol] | 84 °C |
| COc1ccc(C(C)(C)C)cc1B(O)O [5-tert-butyl-2-methoxybenzeneboronic acid] | 105 °C |
| COc1ccc(C(C)(C)C)cc1C(=O)O [5-tert-butyl-2-methoxybenzoic acid] | 75 °C |
| Clc1ccc(-c2ccnc(Cl)c2)cn1 [6,2'-dichloro-3,4'-bipyridine] | 222 °C |
| CCSC(SCC)C(O)C(O)C(O)C(O)CO (stereo not given) [6,6-di(ethylthio)hexane-1,2,3,4,5-pentaol] | 128 °C |
| O=C1CCC(c2ccc(Br)cc2)=NN1 [6-(4-bromophenyl)-4,5-dihydro-3(2h)-pyridazinone] | 169 °C |
| COc1ccc2nc(N)sc2c1 [6-Methoxy-1,3-benzothiazol-2-amine] | 166 °C |
| Nc1ccc2ncsc2c1 [6-aminobenzothiazole] | 88 °C |
| Nc1ccc2ncccc2c1 [6-aminoquinoline] | 117 °C |
| Cc1n[nH]c(=S)[nH]c1=O [6-aza-2-thiothymine] | 220 °C |
| Cc1n[nH]c(=O)[nH]c1=O [6-azathymine] | 213 °C |
| CCCC(=O)c1cc2cc(Br)ccc2oc1=O [6-bromo-3-butyrylcoumarin] | 164 °C |
| Brc1ccc2ncsc2c1 [6-bromobenzothiazole] | 53 °C |
| Cn1c(Cl)cc(=O)n(C)c1=O [6-chloro-1,3-dimethyluracil] | 110 °C |
| O=C(O)C1=Cc2cc(Cl)ccc2OC1 [6-chloro-2h-chromene-3-carboxylic acid] | 243 °C |
| Oc1cc(C(F)(F)F)nc2ccc(Cl)cc12 [6-chloro-4-hydroxy-2-(trifluoromethyl)quinoline] | 279 °C |

Reference: the Bradley open melting point set (2014)
